Earlier results, collected in US20010031279A1, “Controlled delivery of antidepressants” (priority 1998, published 2001).
Counter-ions that a name gives are not always drawn.

time of peak plasma concentrations after dosing (conventional immediate release formulations): about one
half-life (in vivo): 2 to 4 h
SMILES: CCc1nn(CCCN2CCN(c3cccc(Cl)c3)CC2)c(=O)n1CCOc1ccccc1 [nefazodone hydrochloride, 2-[3-[4-(3-chlorophenyl)-piperazinyl]propyl]-5-ethyl-4-(2-phenoxyethyl)-2H-1,2,4-triazol-3(4H)-one hydrochloride]
